Source: patent US9314019B2, “Snout beetle attractant” (priority 2011, dated 2016)

Tested on: snout beetles
Assay: Field test of individual odorants in yellow Delta traps
Type: in vivo, Eremnus setulosus and/or Phlyctinus calosus
Details: for Numbers of snout beetles caught in yellow Delta traps, Mean: mean of six replications, traps collected after one week; for Numbers of snout beetles caught in yellow Delta traps, Rep. 1: replication 1; for Numbers of snout beetles caught in yellow Delta traps, Rep. 1 / Numbers of snout beetles caught in yellow Delta traps, Rep. 2 / Numbers of snout beetles caught in yellow Delta traps, Rep. 3 / Numbers of snout beetles caught in yellow Delta traps, Rep. 4 / Numbers of snout beetles caught in yellow Delta traps, Rep. 5 / Numbers of snout beetles caught in yellow Delta traps, Rep. 6: traps at ground level against apple tree trunks, collected after one week; for Numbers of snout beetles caught in yellow Delta traps, Rep. 2: replication 2; for Numbers of snout beetles caught in yellow Delta traps, Rep. 3: replication 3; for Numbers of snout beetles caught in yellow Delta traps, Rep. 4: replication 4; for Numbers of snout beetles caught in yellow Delta traps, Rep. 5: replication 5; for Numbers of snout beetles caught in yellow Delta traps, Rep. 6: replication 6
Excerpt: Yellow Delta traps fitted with bottom sticky pads upon which odorant dispensers of the various test odorants were applied, were placed on ground level against the trunks of bearing apple trees in the Koue Bokkeveld area in the Western Cape Province, South Africa. Test orchards infested with snout beetles were selected on the farms Dennekruin and Voorsorg in the Ceres-Koue-Bokkeveld area.
Unloaded or “blank” traps with no odorants, but identical to the other traps in all other respects, were used as a control. There are no attractants registered for use on snout beetles on deciduous fruit in South Africa with which to compare the experimental results.
After one week the traps were collected and the snout beetles caught were counted and noted. Six replications were used per odorant tested. In Table 1 below the summarised results of the experiments are presented.

With `COC1=C(C)OC(C)C1=O` (centres unmarked) [2,5-Dimethyl-4-methoxy-3(2H)-furanone] the “Numbers of snout beetles caught in yellow Delta traps, Mean” value (“Numbers … in yellow Delta traps, Mean” below) was 3.5, the “Numbers of snout beetles caught in yellow Delta traps, Rep. 1” value (shortened to “Numbers … in yellow Delta traps, Rep. 1”) was 2 and the “Numbers of snout beetles caught in yellow Delta traps, Rep. 2” value (shortened to “Numbers … in yellow Delta traps, Rep. 2”) was 4. For the same compound, the “Numbers of snout beetles caught in yellow Delta traps, Rep. 3” value (shortened to “Numbers … in yellow Delta traps, Rep. 3”) was 3, the “Numbers of snout beetles caught in yellow Delta traps, Rep. 4” value (shortened to “Numbers … in yellow Delta traps, Rep. 4”) was 2 and the “Numbers of snout beetles caught in yellow Delta traps, Rep. 5” value (shortened to “Numbers … in yellow Delta traps, Rep. 5”) was 3. For the same compound, the “Numbers of snout beetles caught in yellow Delta traps, Rep. 6” value (shortened to “Numbers … in yellow Delta traps, Rep. 6”) was 7.

In the case of `CC(=O)CCC(C)C` [5-Methyl-2-hexanone], the “Numbers … in yellow Delta traps, Mean” value is reported as 2.7, the “Numbers … in yellow Delta traps, Rep. 1” value is reported as 4 and the “Numbers … in yellow Delta traps, Rep. 2” value is reported as 1. The “Numbers … in yellow Delta traps, Rep. 3” value was 1, the “Numbers … in yellow Delta traps, Rep. 4” value was 5 and the “Numbers … in yellow Delta traps, Rep. 5” value was 3. The “Numbers … in yellow Delta traps, Rep. 6” value was 2.

In the case of `COc1cccc(C(C)=O)c1` [3-Methoxy acetophenone], the “Numbers … in yellow Delta traps, Mean” value is reported as 2.5, the “Numbers … in yellow Delta traps, Rep. 1” value is reported as 3 and the “Numbers … in yellow Delta traps, Rep. 2” value is reported as 1. The “Numbers … in yellow Delta traps, Rep. 3” value was 6, the “Numbers … in yellow Delta traps, Rep. 4” value was 2 and the “Numbers … in yellow Delta traps, Rep. 5” value was 1. The “Numbers … in yellow Delta traps, Rep. 6” value was 2.

`COc1ccccc1` [Anisole] was tested, and the “Numbers … in yellow Delta traps, Mean” value was 2.7, the “Numbers … in yellow Delta traps, Rep. 1” value was 4 and the “Numbers … in yellow Delta traps, Rep. 2” value was 1. For the same compound, the “Numbers … in yellow Delta traps, Rep. 3” value was 3, the “Numbers … in yellow Delta traps, Rep. 4” value was 3 and the “Numbers … in yellow Delta traps, Rep. 5” value was 2. The “Numbers … in yellow Delta traps, Rep. 6” value was 3.

In the case of `O=C(O)C1CC1` [Cyclopropane carboxylic acid], the “Numbers … in yellow Delta traps, Mean” value is reported as 7.8, the “Numbers … in yellow Delta traps, Rep. 1” value is reported as 6 and the “Numbers … in yellow Delta traps, Rep. 2” value is reported as 7. For the same compound, the “Numbers … in yellow Delta traps, Rep. 3” value was 5, the “Numbers … in yellow Delta traps, Rep. 4” value was 7 and the “Numbers … in yellow Delta traps, Rep. 5” value was 3. The “Numbers … in yellow Delta traps, Rep. 6” value was 19.
